According to patent publication US11034672B1, “Tyrosine kinase inhibitor compositions, methods of making and methods of use” (Black Diamond Therapeutics, Inc., priority 2018, dated 2021):

Experiments:
Format in all cases: cell-based
[1] = target: T1, EGFR WT (Homo sapiens, UniProt P00533); assay: Activity for inhibiting EGFR (Table A), EGFR WT; conditions: read-out: EGFR WT, potency code (IC50)
[2] = target: T2, EGFR V3 (Homo sapiens, UniProt P00533, DELINS30-297G); assay: Activity for inhibiting EGFR (Table A), EGFR V3 (EGFR-Viii); conditions: read-out: EGFR V3, potency code (IC50)
T2 construct: expressed in transfected cells; host or cells: BaF3 (murine pro-B), retroviral pMXs-IRES-Blasticidin
T2 sequence (P00533 with tags, fused parts or gaps DELINS30-297G): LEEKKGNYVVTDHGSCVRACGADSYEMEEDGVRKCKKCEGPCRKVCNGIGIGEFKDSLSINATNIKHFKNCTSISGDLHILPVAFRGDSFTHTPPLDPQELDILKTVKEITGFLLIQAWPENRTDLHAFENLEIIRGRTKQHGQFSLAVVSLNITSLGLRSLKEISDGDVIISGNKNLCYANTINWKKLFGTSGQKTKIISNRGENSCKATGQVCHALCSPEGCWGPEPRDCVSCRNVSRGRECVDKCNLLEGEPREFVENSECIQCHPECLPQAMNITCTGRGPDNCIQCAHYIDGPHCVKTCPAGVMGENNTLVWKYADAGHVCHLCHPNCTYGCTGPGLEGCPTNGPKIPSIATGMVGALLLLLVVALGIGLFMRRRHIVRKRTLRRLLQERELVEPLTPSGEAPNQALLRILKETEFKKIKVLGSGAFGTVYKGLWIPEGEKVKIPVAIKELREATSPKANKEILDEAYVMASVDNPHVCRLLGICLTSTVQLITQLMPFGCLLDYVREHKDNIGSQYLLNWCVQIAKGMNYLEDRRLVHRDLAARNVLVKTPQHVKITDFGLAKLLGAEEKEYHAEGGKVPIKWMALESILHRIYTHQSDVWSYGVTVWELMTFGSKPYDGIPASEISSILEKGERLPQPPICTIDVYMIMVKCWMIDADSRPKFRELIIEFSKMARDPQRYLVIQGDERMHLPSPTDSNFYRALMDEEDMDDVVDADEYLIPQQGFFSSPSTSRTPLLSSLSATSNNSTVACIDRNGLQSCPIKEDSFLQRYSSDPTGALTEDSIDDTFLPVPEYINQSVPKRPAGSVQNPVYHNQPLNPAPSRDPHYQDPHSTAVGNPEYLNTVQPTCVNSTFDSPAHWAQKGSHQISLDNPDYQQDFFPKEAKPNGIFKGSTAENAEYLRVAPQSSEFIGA

[3] = target: T3, HER2 WT (Homo sapiens, UniProt P04626); assay: Activity for inhibiting HER2 (Table B), HER2 WT
T3 sequence (P04626 23-1255): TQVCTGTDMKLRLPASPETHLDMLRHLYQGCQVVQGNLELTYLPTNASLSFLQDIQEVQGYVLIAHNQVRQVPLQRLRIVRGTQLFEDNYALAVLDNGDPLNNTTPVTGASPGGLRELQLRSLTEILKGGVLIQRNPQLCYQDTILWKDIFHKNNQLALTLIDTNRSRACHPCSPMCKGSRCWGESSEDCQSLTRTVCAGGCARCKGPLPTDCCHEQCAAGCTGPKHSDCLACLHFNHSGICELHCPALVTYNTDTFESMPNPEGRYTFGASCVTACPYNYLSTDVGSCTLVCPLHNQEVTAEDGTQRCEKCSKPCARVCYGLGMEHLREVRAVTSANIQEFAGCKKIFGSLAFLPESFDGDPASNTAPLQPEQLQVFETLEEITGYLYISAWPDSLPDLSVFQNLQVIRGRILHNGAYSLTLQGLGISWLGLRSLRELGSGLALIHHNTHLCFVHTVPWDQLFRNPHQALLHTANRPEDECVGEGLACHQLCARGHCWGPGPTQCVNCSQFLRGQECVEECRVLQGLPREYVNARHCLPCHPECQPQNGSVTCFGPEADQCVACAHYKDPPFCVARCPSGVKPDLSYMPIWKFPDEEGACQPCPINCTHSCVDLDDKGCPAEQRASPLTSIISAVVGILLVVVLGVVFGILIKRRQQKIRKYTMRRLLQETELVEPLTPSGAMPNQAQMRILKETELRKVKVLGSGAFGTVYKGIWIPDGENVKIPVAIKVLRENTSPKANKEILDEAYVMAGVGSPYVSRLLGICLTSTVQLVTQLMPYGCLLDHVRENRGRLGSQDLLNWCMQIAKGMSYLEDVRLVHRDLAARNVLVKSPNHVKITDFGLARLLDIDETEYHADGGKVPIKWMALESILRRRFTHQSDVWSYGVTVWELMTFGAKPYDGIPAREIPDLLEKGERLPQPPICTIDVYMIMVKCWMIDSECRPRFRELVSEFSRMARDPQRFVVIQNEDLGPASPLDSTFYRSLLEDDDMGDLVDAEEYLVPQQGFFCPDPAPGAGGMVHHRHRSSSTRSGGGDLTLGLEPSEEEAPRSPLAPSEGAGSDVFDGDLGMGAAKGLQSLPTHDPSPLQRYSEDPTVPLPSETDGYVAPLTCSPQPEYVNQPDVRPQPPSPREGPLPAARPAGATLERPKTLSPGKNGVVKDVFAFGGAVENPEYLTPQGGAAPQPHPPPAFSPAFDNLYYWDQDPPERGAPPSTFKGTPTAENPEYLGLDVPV

[4] = target: T4, HER2 S310F (Homo sapiens, UniProt P04626, S310F); assay: Activity for inhibiting HER2 (Table B), HER2 S310F; conditions: read-out: HER2 S310F, potency code (IC50)
T4 construct: expressed in transfected cells; host or cells: BaF3 (murine pro-B)
Protocol: (§1) EC50 values were determined with the same application.

[5] = target: T1, EGFR WT; assay: BaF3 cell proliferation assay, EGFR WT (Table A); conditions: potency code, 3 days, CellTiterGlo, read-out: EGFR WT (Activity for Inhibiting EGFR)
How it was run: (§2)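 Steps: HEK 293T transfected with pMXs-IRES-Blasticidin kinase vector plus Gag-Pol and VSV-G; virus harvested at 24 and 48 hrs; BaF3 infected twice by centrifugation, Blasticidin-selected, then grown without IL-3. Proliferation EC50 measured.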

[6] = target: T2, EGFR V3; assay: BaF3 cell proliferation assay, EGFR V3 (Table A); conditions: potency code, 3 days, CellTiterGlo, read-out: EGFR V3 (Activity for Inhibiting EGFR)
How it was run: as §2

[7] = target: T3, HER2 WT; assay: BaF3 cell proliferation assay, HER2 WT (Table B); conditions: potency code, 3 days, CellTiterGlo, read-out: HER2 WT (Activity for Inhibiting HER2)
[8] = target: T4, HER2 S310F; assay: BaF3 cell proliferation assay, HER2 S310F (Table B); conditions: potency code, 3 days, CellTiterGlo, read-out: HER2 S310F (Activity for Inhibiting HER2)
[9] = target: T5, HER2 YVMA (Homo sapiens, UniProt P04626, INS775YVMA); assay: Activity for inhibiting HER2 (Table B), HER2 YVMA; conditions: read-out: HER2 YVMA, potency code (IC50)
T5 construct: expressed in transfected cells; host or cells: BaF3 (murine pro-B)
T5 sequence (P04626 with tags, fused parts or gaps INS775YVMA): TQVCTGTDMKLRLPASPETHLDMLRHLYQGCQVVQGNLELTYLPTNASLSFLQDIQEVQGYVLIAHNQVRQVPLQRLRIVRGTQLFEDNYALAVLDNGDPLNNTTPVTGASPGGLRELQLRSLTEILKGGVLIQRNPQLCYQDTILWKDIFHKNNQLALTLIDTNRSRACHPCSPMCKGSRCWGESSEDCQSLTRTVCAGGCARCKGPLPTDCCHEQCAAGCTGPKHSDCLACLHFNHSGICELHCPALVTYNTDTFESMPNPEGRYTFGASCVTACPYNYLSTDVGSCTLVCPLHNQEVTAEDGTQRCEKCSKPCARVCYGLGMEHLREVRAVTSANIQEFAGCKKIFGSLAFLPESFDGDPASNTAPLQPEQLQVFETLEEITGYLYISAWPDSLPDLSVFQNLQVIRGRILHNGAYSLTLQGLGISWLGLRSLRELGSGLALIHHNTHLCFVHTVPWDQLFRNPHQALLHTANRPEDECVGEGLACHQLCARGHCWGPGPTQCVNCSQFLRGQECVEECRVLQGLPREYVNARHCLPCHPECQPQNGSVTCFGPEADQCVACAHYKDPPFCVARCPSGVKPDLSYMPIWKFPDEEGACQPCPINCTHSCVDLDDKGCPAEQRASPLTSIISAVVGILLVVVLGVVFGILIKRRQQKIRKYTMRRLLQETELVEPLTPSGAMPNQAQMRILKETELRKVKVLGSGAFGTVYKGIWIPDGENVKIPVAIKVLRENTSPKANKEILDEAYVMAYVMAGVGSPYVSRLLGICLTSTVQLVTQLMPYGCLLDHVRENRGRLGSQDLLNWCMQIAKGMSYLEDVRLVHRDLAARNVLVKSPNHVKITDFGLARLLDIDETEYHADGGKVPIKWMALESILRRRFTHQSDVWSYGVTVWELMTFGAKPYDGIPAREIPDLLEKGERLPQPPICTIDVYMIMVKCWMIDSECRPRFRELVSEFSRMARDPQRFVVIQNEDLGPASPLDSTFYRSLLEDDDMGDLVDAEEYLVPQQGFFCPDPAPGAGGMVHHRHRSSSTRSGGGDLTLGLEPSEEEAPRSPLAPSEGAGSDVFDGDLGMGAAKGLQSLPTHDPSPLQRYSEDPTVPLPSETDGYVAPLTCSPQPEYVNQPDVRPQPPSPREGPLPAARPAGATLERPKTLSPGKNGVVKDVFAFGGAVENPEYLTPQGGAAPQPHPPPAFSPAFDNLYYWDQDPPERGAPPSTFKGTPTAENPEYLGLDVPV
Protocol: as §1

[10] = target: T5, HER2 YVMA; assay: BaF3 cell proliferation assay, HER2 YVMA (Table B); conditions: potency code, 3 days, CellTiterGlo, read-out: HER2 YVMA (Activity for Inhibiting HER2)
[11] = Table B, read-out: HER2 WT, potency code (IC50)
[12] = text lists of compounds, read-out: IC50 value for inhibiting wild-type HER2

T1 sequence (P00533 25-1210 N540K): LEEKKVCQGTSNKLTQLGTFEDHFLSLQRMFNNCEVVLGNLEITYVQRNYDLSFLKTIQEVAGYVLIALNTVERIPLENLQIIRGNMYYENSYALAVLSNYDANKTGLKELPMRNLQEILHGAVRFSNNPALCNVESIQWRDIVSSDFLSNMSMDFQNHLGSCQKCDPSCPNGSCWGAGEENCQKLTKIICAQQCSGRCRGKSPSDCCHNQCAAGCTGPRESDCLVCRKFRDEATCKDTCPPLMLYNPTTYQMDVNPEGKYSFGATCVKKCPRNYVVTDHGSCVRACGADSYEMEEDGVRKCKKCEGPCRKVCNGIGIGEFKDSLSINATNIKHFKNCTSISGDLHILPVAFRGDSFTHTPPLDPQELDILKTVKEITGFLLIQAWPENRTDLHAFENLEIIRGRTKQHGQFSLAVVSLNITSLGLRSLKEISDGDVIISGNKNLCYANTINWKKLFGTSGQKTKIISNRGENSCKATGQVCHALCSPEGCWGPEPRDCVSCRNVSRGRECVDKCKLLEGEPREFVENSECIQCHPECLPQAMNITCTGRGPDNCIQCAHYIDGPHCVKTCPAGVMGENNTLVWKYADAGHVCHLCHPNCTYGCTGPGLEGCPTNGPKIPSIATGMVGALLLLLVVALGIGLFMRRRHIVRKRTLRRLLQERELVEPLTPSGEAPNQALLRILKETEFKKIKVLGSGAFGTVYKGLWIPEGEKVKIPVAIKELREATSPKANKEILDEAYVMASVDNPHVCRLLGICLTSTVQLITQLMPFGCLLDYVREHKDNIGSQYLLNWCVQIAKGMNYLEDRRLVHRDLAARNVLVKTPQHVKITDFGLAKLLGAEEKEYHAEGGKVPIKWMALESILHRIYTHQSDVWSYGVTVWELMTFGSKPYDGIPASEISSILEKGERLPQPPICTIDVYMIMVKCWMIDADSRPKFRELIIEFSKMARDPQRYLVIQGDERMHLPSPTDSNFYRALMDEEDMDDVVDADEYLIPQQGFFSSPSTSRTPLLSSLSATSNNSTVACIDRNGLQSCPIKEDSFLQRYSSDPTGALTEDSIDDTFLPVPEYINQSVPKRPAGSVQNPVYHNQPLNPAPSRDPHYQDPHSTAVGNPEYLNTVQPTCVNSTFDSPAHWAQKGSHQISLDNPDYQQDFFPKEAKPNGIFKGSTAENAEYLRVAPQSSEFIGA

Compound	IC50 [1]	IC50 [2]	IC50 [3, 11]	IC50 [4]	IC50 [5]	IC50 [6]	IC50 [7]	IC50 [8]	IC50 [3, 12]	IC50 [9]	IC50 [10]
C=CC(=O)Nc1cc2c(Nc3ccc(OCc4cccc(F)c4)c(Cl)c3)ncnc2cc1N(C)CCN(C)C [compound 1]	> 1000 nM	100 to 200 nM	50 to 100 nM	500 to 1000 nM	> 1000 nM	100 to 200 nM	50 to 100 nM	500 to 1000 nM	–	–	–
C=CC(=O)Nc1cc2c(Nc3ccc(OCc4cccc(F)c4)c(Cl)c3)ncnc2cc1N(C)CCN1CCOCC1 [compound 2]	> 1000 nM	50 to 100 nM	100 to 200 nM	300 to 500 nM	> 1000 nM	50 to 100 nM	100 to 200 nM	300 to 500 nM	–	–	–
C=CC(=O)Nc1cc2c(Nc3ccc(OCc4cccc(F)c4)c(Cl)c3)ncnc2cc1OCCCN1CCOCC1 [compound 3]	300 to 500 nM	30 to 50 nM	10 to 20 nM	20 to 30 nM	300 to 500 nM	30 to 50 nM	10 to 20 nM	20 to 30 nM	≤ 20 nM	–	–
C=CC(=O)Nc1cc2c(Nc3ccc(OCc4ccccn4)cc3)ncnc2cc1OCCN1CC2CN(C)CC2C1 (centres unmarked) [compound 81]	200 to 300 nM	100 to 200 nM	–	100 to 200 nM	200 to 300 nM	100 to 200 nM	–	100 to 200 nM	≤ 50 nM	> 1000 nM	> 1000 nM
C=CC(=O)Nc1cc2c(Nc3ccc(OCc4cccc(F)n4)c(Cl)c3)ncnc2cc1OCCCN1C[C@@H]2C[C@H]1CO2 [compound 161]	200 to 300 nM	30 to 50 nM	–	30 to 50 nM	200 to 300 nM	30 to 50 nM	–	30 to 50 nM	–	100 to 200 nM	100 to 200 nM
C=CC(=O)Nc1cc2c(Nc3ccc(OCc4cccc(F)n4)c(Cl)c3)ncnc2cc1OCCCN1C[C@H]2C[C@@H]1CO2 [compound 162]	300 to 500 nM	30 to 50 nM	–	30 to 50 nM	300 to 500 nM	30 to 50 nM	–	30 to 50 nM	–	100 to 200 nM	100 to 200 nM
C=CC(=O)Nc1cc2c(Nc3ccc(OCc4ccncn4)c(Cl)c3)ncnc2cc1OCCCN1CCOCC1 [compound 163]	> 1000 nM	50 to 100 nM	–	30 to 50 nM	> 1000 nM	50 to 100 nM	–	30 to 50 nM	–	100 to 200 nM	100 to 200 nM
CC#CC(=O)Nc1cc2c(Nc3ccc(OCc4ccncn4)c(Cl)c3)ncnc2cc1OCCCN1CCOCC1 [compound 164, N-(4-((3-chloro-4-(pyrimidin-4-ylmethoxy)phenyl)amino)-7-(3-morpholinopropoxy)quinazolin-6-yl)but-2-ynamide]	300 to 500 nM	50 to 100 nM	–	30 to 50 nM	300 to 500 nM	50 to 100 nM	–	30 to 50 nM	–	100 to 200 nM	100 to 200 nM
CC#CC(=O)Nc1cc2c(Nc3ccc(OCc4cccnn4)c(Cl)c3)ncnc2cc1OCCCN1CCOCC1 [compound 165, N-(4-((3-chloro-4-(pyridazin-3-ylmethoxy)phenyl)amino)-7-(3-morpholinopropoxy)quinazolin-6-yl)but-2-ynamide]	100 to 200 nM	30 to 50 nM	–	10 to 20 nM	100 to 200 nM	30 to 50 nM	–	10 to 20 nM	–	50 to 100 nM	50 to 100 nM
C=CC(=O)Nc1cc2c(Nc3ccc(OCc4ncccn4)c(Cl)c3)ncnc2cc1OCCCN1CCOCC1 [compound 166]	> 1000 nM	30 to 50 nM	–	30 to 50 nM	> 1000 nM	30 to 50 nM	–	30 to 50 nM	–	100 to 200 nM	100 to 200 nM
C=CC(=O)Nc1cc2c(Nc3ccc(OCc4cccnn4)c(Cl)c3)ncnc2cc1OCCCN1CCOCC1 [compound 167]	> 1000 nM	30 to 50 nM	–	10 to 20 nM	> 1000 nM	30 to 50 nM	–	10 to 20 nM	–	50 to 100 nM	50 to 100 nM
CC#CC(=O)Nc1cc2c(Nc3ccc(OCc4ncccn4)c(Cl)c3)ncnc2cc1OCCCN1CCOCC1 [compound 168, N-(4-((3-chloro-4-(pyrimidin-2-ylmethoxy)phenyl)amino)-7-(3-morpholinopropoxy)quinazolin-6-yl)but-2-ynamide]	200 to 300 nM	30 to 50 nM	–	20 to 30 nM	200 to 300 nM	30 to 50 nM	–	20 to 30 nM	–	50 to 100 nM	50 to 100 nM
